# Assay results published in patent US20100003542A1, “Coating of artificial surfaces of medical aids and instruments, and cleaning and/or pretreatment of catheters and other medical aids and instruments” (BAYER SCHERING PHARMA AKTIENGESSELSCHAFT, priority 2006, published 2010).
# Test system: intrinsic blood clotting system
# Assay: Determination of the inhibition of contact activation: activated partial thromboplastin time (aPTT) in platelet-poor plasma
# Set-up: species or system human
# Details: concentration of inhibitor causing twofold prolongation of aPTT; platelet-poor citrate plasma from healthy volunteers; 10 min incubation at 37° C.; PTT reagent (kaolin/cephalin)
# Source text: The contact activation can be measured by means of a global plasma clotting test, the activated partial thromboplastin time (aPTT), which detects the effect on factors of the intrinsic blood clotting system.
# The PTT reagent is a mixture of kaolin suspension, that is “silicates”, which mimic the negatively charged foreign surface, and cephalin, that is phospholipids, which are needed as a surface for the conversion of factor XII into factor XIIa. In the presence of a foreign surface, phospholipid and Ca^2+, factor XII is converted to factor XIIa.
# This PTT reagent is added to specially prepared plasma (see examples). The clotting is triggered when the necessary calcium^2+ ions are present, i.e. by addition of a calcium dichloride solution. The time between calcium^2+ addition and the onset of clotting is then measured, and the concentration of inhibitor [in μM] which causes a twofold prolongation of the aPTT is stated.
# The contact activation is determined by determination of the partial thromboplastin time. The test principle is as follows: the plasma sample is treated with a mixture of the partial thromboplastin cephalin (phospholipid from rabbit brain) and the surface activator kaolin. The contact activation of the intrinsic clotting system up to fibrin formation is thus set in motion.
# For the determination of the partial thromboplastin time, blood from healthy volunteers of both sexes, who had not received any medication affecting clotting within the last ten days, was used. The blood is collected in Monovettes (Sarstedt, Nümbrecht) which contain sodium citrate (1 part citrate+9 parts blood) as anticoagulant. To obtain platelet-poor plasma, the citrate (3.8%) whole blood is centrifuged at 2500 g for 10 min at 4° C. and stored at −20° C. For the determination of the clotting time, aliquots of the platelet-poor plasma (0.1 ml) are incubated with increasing concentrations of test substance or the corresponding solvent for 10 mins at 37° C. Next, the clotting time is determined in accordance with the manufacturer's directions (PTT Reagent®, Roche Diagnostics). For this the procedure is as follows: 0.1 ml of PTT reagent is pipetted into the plasma, and the sample incubated for three minutes at 37° C. The clotting is then triggered in a coagulometer by addition of 0.1 ml of calcium chloride solution and the time to onset of clotting is measured. In this manner, the 2-fold prolongation of the aPTT is determined for selected compounds.
row,SMILES,Twofold prolongation of the aPTT [µM]
1,O=C(NC[C@H]1CN(c2ccc(N3CCCC3=O)cc2)C(=O)O1)c1ccc(Cl)s1 [Example 17],1.8
2,"O=C(NC[C@H]1CN(c2ccc(N3CCOCC3=O)cc2)C(=O)O1)c1ccc(Cl)s1 [Example 44, 5-chloro-N-({(5S)-2-oxo-3-[4-(3-oxo-4-morpholinyl)phenyl]-1,3-oxazolidin-5-yl}methyl)-2-thiophencarboxamide]",0.69
3,O=C(NC[C@H]1CN(c2ccc(N3CCCC3=O)cc2)C(=O)O1)c1ccc(Br)s1 [Example 56],4.3
4,O=C(NCC1CN(c2ccc(N3CCOCC3=O)c(F)c2)C(=O)O1)c1ccc(Cl)s1 (centres unmarked) [Example 95],0.51
5,O=C(NCC1CN(c2ccc(N3CCCC3=O)c(C(F)(F)F)c2)C(=O)O1)c1ccc(Cl)s1 (centres unmarked) [Example 112],1.6
6,O=C(NCC1CN(c2ccc(N3CCOCC3=O)c(Cl)c2)C(=O)O1)c1ccc(Cl)s1 (centres unmarked) [Example 113],0.55
7,O=C(NCC1CN(c2ccc(N3CCOCC3=O)c(C(F)(F)F)c2)C(=O)O1)c1ccc(Cl)s1 (centres unmarked) [Example 114],2.2
8,Cc1cc(N2CC(CNC(=O)c3ccc(Cl)s3)OC2=O)ccc1N1CCOCC1=O (centres unmarked) [Example 115],1.34
9,Nc1cc(N2CC(CNC(=O)c3ccc(Cl)s3)OC2=O)ccc1N1CCOCC1=O (centres unmarked) [Example 123],1.22
10,O=C(NC[C@H]1CN(c2ccc(N3CCOCC3=O)c(F)c2)C(=O)O1)c1ccc(Cl)s1 [Example 130a],0.4
11,O=C(NC[C@H]1CN(c2ccc(N3CCCCC3=O)cc2)C(=O)O1)c1ccc(Cl)s1 [Example 162],2.5
